Assay results from patent publication US10414769B2, “5,8-dimethyl-9-phenyl-5,8-dihydro-6H-pyrazolo[3,4-h]quinazolin-2-yl)-(1H-pyrazol-3-yl)-amines as IGF-1R/IR inhibitors” (Boehringer Ingelheim International GmbH, priority 2015, dated 2019).

Key:
Format in all cases: biochemical
MAPK14 (p38 alpha) = molecular target: T1, MAPK14 (p38 alpha) (Homo sapiens, UniProt Q16539); test: Z'-LYTE kinase selectivity assay MAPK14
T1 construct: purchased Life Technologies PV 3304
From the text: (§1) In order to compare the kinase selectivity of compounds (I) according to the invention with known prior art compounds the commercially provided SelectScreen® Kinase Profiling Service (Z′-LYTE®) was used (Life Technologies GmbH, Darmstadt, Germany) to investigate the ability of the compounds to inhibit a number of different, representatively selected human kinases. Further details regarding this service are available on the Life Technologies website at
(§2) The Z′-LYTE® biochemical assay employs a fluorescence-based, coupled-enzyme format and is based on the differential sensitivity of phosphorylated and non-phosphorylated peptides to proteolytic cleavage. The peptide substrate is labeled with two fluorophores—one at each end—that make up a FRET pair.
(§3) In the primary reaction, the kinase transfers the gamma-phosphate of ATP to a single tyrosine, serine or threonine residue in a synthetic FRET-peptide. In the secondary reaction, a site-specific protease recognizes and cleaves non-phosphorylated FRET-peptides. Phosphorylation of FRET-peptides suppresses cleavage by the Development Reagent. Cleavage disrupts FRET between the donor (i.e., coumarin) and acceptor (i.e., fluorescein) fluorophores on the FRET-peptide, whereas uncleaved, phosphorylated FRET-peptides maintain FRET. A ratiometric method, which calculates the ratio (the Emission Ratio) of donor emission to acceptor emission after excitation of the donor fluorophore at 400 nm, is used to quantitate reaction progress, as shown in the equation below.
(§4) The Test Compounds are screened at 1 μM.
(§5) After the 1 hour Kinase Reaction incubation, 5 μL of a 1:1024 dilution of Development Reagent A is added.

EPHB2 = molecular target: T2, EPHB2 (Homo sapiens, UniProt P29323); test: Z'-LYTE kinase selectivity assay EPHB2
T2 construct: purchased Life Technologies PV 3625
T2 sequence (P29323 19-1055): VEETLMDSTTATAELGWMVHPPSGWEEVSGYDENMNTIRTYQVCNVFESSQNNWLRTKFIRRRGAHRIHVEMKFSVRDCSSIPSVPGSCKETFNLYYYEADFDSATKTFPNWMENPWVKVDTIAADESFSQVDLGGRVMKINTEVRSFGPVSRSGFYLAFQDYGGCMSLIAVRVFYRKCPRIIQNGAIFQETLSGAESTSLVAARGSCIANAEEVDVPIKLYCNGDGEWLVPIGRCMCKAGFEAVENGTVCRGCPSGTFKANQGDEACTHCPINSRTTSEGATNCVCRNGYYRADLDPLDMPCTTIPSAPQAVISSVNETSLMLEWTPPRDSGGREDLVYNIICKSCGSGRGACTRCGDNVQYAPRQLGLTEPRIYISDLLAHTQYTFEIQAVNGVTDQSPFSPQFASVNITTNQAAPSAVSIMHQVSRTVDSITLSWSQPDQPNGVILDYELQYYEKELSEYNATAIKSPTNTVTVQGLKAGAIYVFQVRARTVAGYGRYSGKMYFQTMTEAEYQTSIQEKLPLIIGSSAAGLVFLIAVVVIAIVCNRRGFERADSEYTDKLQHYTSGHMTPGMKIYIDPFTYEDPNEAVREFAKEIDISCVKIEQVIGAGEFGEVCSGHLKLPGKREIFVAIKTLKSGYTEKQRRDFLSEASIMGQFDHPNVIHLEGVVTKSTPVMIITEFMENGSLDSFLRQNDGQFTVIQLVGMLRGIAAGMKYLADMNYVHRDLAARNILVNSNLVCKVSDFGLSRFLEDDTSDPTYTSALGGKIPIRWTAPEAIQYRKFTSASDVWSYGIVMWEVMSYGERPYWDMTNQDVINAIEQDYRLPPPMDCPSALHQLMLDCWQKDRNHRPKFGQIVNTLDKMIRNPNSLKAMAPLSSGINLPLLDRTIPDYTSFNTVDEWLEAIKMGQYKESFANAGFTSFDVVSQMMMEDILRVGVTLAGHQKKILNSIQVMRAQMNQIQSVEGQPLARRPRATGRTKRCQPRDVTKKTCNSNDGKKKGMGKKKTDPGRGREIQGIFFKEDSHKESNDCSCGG
From the text: as §1, §2, §3, §4
The 2×EPHB2 (# PV 3625)/Tyr 02 (Z′-LYTE® Kinase Assay Kit—Tyrosine 2 Peptide, # PV 3191) mixture is prepared in 50 mM HEPES pH 7.5, 0.01% BRIJ-35, 10 mM MgCl2, 1 mM EGTA. The final 10 μL Kinase Reaction consists of 0.55-36 ng EPHB2 and 2 μM Tyr 02 in 50 mM HEPES pH 7.5, 0.01% BRIJ-35, 10 mM MgCl2, 1 mM EGTA. After the 1 hour Kinase Reaction incubation, 5 μL of a 1:128 dilution of Development Reagent A is added.

ACVR1B (ALK4) = molecular target: T3, ACVR1B (ALK4) (Homo sapiens, UniProt P36896); test: Z'-LYTE kinase selectivity assay ACVR1B
T3 construct: purchased Life Technologies PV4312
T3 sequence (P36896 24-505): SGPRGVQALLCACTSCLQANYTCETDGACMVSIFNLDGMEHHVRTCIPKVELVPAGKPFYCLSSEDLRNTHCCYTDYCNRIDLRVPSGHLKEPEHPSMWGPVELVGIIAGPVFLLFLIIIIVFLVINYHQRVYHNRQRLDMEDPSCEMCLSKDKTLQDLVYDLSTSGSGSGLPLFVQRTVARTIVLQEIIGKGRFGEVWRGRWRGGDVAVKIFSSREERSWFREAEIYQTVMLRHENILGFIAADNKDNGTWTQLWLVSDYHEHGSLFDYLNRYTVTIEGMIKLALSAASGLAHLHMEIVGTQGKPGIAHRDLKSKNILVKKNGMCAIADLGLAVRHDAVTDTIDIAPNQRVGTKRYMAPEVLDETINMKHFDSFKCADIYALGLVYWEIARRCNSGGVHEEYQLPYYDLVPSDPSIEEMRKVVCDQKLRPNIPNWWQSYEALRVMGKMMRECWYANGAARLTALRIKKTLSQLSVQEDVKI
From the text: as §1, §2, §3, §4
The 2×ACVR1B (ALK4) (# PV4312)/Ser/Thr 16 (Z′-LYTE® Kinase Assay Kit—Ser/Thr 16 Peptide, # PV 3802) mixture is prepared in 50 mM HEPES pH 7.5, 0.01% BRIJ-35, 10 mM MnCl2, 1 mM EGTA, 2 mM DTT, 0.02% NaN3. The final 10 μL Kinase Reaction consists of 9.15-60 ng ACVR1B (ALK4) and 2 μM Ser/Thr 16 in 50 mM HEPES pH 7.5, 0.01% BRIJ-35, 5 mM MgCl2, 5 mM MnCl2, 1 mM EGTA, 1 mM DTT, 0.01% NaN3. After the 1 hour Kinase Reaction incubation, 5 μL of a 1:16 dilution of Development Reagent B is added.

MAP2K1 (MEK1) = molecular target: T4, MAP2K1 (MEK1) (Homo sapiens, UniProt Q02750); test: Z'-LYTE kinase selectivity assay MAP2K1
T4 construct: purchased Life Technologies PV 3303
From the text: as §1, §2, §3, §4, §5

T4 sequence (Q02750 whole entry): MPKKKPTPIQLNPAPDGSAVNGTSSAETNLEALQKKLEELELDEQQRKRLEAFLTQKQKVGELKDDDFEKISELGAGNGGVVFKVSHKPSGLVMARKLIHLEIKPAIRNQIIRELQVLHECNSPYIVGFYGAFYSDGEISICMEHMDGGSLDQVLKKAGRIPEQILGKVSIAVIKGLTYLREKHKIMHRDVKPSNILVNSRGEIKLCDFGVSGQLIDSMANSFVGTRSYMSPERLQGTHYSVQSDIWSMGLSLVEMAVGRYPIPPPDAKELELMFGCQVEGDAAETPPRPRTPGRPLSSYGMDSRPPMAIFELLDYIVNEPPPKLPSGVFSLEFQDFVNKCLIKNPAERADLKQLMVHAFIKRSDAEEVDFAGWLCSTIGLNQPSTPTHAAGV
T1 sequence (Q16539 whole entry): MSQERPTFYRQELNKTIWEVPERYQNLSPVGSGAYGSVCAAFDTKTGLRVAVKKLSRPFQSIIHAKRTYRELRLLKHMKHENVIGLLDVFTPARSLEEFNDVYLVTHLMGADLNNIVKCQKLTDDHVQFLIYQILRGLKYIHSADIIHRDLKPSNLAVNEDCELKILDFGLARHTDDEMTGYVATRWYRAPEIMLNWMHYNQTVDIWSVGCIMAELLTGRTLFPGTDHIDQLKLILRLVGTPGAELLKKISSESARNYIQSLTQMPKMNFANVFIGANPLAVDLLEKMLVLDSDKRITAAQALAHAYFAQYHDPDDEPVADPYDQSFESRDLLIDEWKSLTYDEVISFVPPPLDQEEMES

| Compound | inhibition at 1 µM (MAPK14 (p38 alpha)) [%] | inhibition at 1 µM (EPHB2) [%] | inhibition at 1 µM (ACVR1B (ALK4)) [%] | inhibition at 1 µM (MAP2K1 (MEK1)) [%] |
| --- | --- | --- | --- | --- |
| C[C@@H]1Cc2nn(C)c(-c3ccccc3)c2-c2nc(Nc3ccn(CCN4CCOCC4)n3)ncc21 [Compound I-2] | 7 | 68 | 0 | 58 |
| C[C@@H]1Cc2nn(C)c(-c3ccccc3)c2-c2nc(Nc3ccn(CCN4CCN(CC(C)(C)O)CC4)n3)ncc21 [Compound I-3] | 2 | 77 | 0 | 50 |
| C[C@@H]1Cc2nn(C)c(-c3ccccc3)c2-c2nc(Nc3ccn(CCN4CCN(CC(=O)OC5CCOCC5)CC4)n3)ncc21 [Compound I-8] | -5 | 62 | -4 | 48 |
| C[C@@H]1Cc2nn(C)c(-c3ccccc3)c2-c2nc(Nc3ccn(CCN4CCN(CC5CCCO5)CC4)n3)ncc21 (stereo partly shown) [Compound I-9] | 4 | 73 | 7 | 36 |

Other lines, results leading:

| inhibition at 1 µM (MAPK14 (p38 alpha)) [%] | inhibition at 1 µM (EPHB2) [%] | inhibition at 1 µM (ACVR1B (ALK4)) [%] | inhibition at 1 µM (MAP2K1 (MEK1)) [%] | Compound |
| --- | --- | --- | --- | --- |
| -5 | 64 | -10 | 34 | C[C@@H]1Cc2nn(C)c(-c3ccccc3)c2-c2nc(Nc3ccn(CCN4CCN(C)CC4)n3)ncc21 [Compound I-1] |
| 2 | 82 | 0 | 40 | CC(O)CN1CCN(CCn2ccc(Nc3ncc4c(n3)-c3c(nn(C)c3-c3ccccc3)C[C@H]4C)n2)CC1 (stereo partly shown) [Compound I-7] |
| 1 | 56 | -11 | 39 | COCCN1CCN(CCn2ccc(Nc3ncc4c(n3)-c3c(nn(C)c3-c3ccccc3)C[C@H]4C)n2)CC1 [Compound I-11] |
